Test results taken from US8404681B2, “Xanthones, thioxanthones and acridinones as DNA-PK inhibitors” (Luitpold Pharmaceuticals, Inc., priority 2003, dated 2013).

Experiments:
[1] = test system: MDA-MB231 (human breast carcinoma) cells; assay: DNA double-strand break repair assay (pulse field gel electrophoresis after irradiation); type: cell-based; settings: 25 Gy, at concentrations which enhanced radiation induced cell killing
Protocol: To further determine the cellular effect of DNA-PK inhibitors, an assay to measure chromosomal discontinuities was employed. Ionizing radiation induces chromosomal DNA double-strand breaks. Following high dose radiation, chromosomes can be extracted from cells and fractionated by pulse field electrophoresis to distinguish chromosomal fragments from intact larger chromosomes. Using this technique, the activity of DNA-PK inhibitors was measured.
MDA-MB231 (human breast carcinoma) cells were seeded onto T25 flasks with RPMI1640+10% FBS, 2 mM L-glutamine, penicillin G 100 U/ml-streptomycin sulfate 10 μg/ml, 1 mM Na pyruvate. When confluent, media was removed and replaced with media containing DNA-PK inhibitor or vehicle. Cells were incubated at 37° C. for 1 hr in a humidified chamber with 5% CO2. Media then was removed and flasks were filled with ice-cold D-PBS and either: (a) processed immediately; (b) irradiated (25 Gy in a ^137Cs Mark I irradiator at a flux of 335 rad/min) and processed immediately; (c) irradiated and incubated for 2 hr in complete RPMI1640+vehicle at 37° C. (in humidified 5% CO2 atmosphere to allow for DNA repair), or (d) irradiated and incubated for 2 hr in complete RPMI1640+DNA-PK inhibitor compound. […] Chromosomal DNA was visualized with SYBR-Gold (Molecular probes #S-11494) and the fluorescent image quantified on the STORM 860 (Molecular Dynamics).

[2] = test system: human colorectal carcinoma cell line, HCT-116; assay: Radiation enhancement cellular proliferation assay (3H thymidine incorporation); type: cell-based; settings: HCT-116 cells, γ-radiation at doses up to 800 rads
Protocol: To measure the ability of present DNA-PK inhibitor compounds to enhance the toxic effect of radiation treatment, the human colorectal carcinoma cell line, HCT-116, was incubated with inhibitor compounds at concentrations up to 50 μM and treated with γ-radiation at doses up to 800 rads. Cells were maintained in RPMI 1640 (Gibco) containing 10% […], 1 mM sodium pyruvate, 2 mM L-glutamine, 100 U/mL penicillin, and 100 μg/mL streptomycin at 37° C. with 5% CO2 in a humidified incubator. Cultured cells were trypsinized, counted, and seeded into 96 well plates at a concentration of 1000 cells/well. Cells were incubated with varying concentrations of the inhibitor compounds from 1.8 μM to 50 μM for 10 hr or 5 days, then the media-containing compounds were removed and replaced With fresh media without drug. After five days, ^3H thymidine (1 μCi/well) was added to each well and incubated for an additional 20 hr. The plates were frozen at −70° C. for at least 2 hr and thawed at 37° C. to lyse the cells. DNA was harvested onto glass fiber filters and ^3H thymidine incorporation determined with a Packard Matrix 96 direct beta counter. Compound dependent potentiation of radiation induced cell killing was determined by comparing the effect of radiation alone and radiation plus inhibitor compound.

DNA-PK = molecular target: T1, DNA-PK (Homo sapiens, UniProt P78527); assay: Standard DNA-PK assay (phosphorylation of p53 peptide substrate); type: biochemical; settings: purified human DNA-PK, 50 μM ATP, room temperature, read-out: IC50 (inhibition of DNA-PK enzyme activity)
T1 construct: HeLa S3 cells (ATCC CCL-2.2; Batch F12594) were raised in MEM-Joklik media; endogenous in cells; host or cells: HeLa S3 cells (ATCC CCL-2.2); Endogenous enzyme purified in house: S100-2 fraction, then Q-Sepharose FF, then SP-Sepharose FF, giving fraction IV
Protocol: Reactions were carried out at room temperature. Reactions were started by addition of ATP and stopped by application to phosphocellulose paper. Reaction products spotted onto phosphocellulose paper were washed five times with a total volume of at least 250 mL 10% acetic acid or 150 mM phosphoric acid. The paper was air dried and radioactivity was determined in a Beckman LS6000IC scintillation counter.

O=c1c2ccccc2n(Cc2ccccc2)c2cc(N3CCOCC3)cc(O)c12 [Example 28, 10-Benzyl-1-hydroxy-3-morpholin-4-yl-10H-acridin-9-one]
DNA double-strand break repair [1]: inhibited DNA double-strand break repair
concentration that enhanced radiation induced cell killing 2-fold [2]: 17.5 µM
IC50 (DNA-PK): 20 nM
